Laboratory results published in patent US8703098B2, “Labelled adrenomedullin derivatives and their use for imaging and therapy” (Institut de Cardiologie de Montreal, priority 2004, dated 2014).
Ends that are not written are not given here.

What was measured:
[1] = dog, in vivo, iv
Method: All experimental procedures were performed in accordance with regulations and ethical guidelines from Canadian Council for the Care of Laboratory Animals, and received approval by the animal ethics and research committee of the Montreal Heart Institute. Mongrel dogs weighing between 20-30 kg and presenting negative Dirofilaria imitis blood test results were anesthetized by an initial intravenous dose of pentobarbital sodium (50 mg/kg). Animals were intubated and mechanically ventilated using room air. Cutaneous electrocardiographic leads were installed, and 18F cathlon with three-way was installed on both saphenous vein for 0.9% sodium chloride perfusion, radiolabelled injection and blood collection. A right arterial femoral catheter was also inserted using the Seldinger technique for continuous blood pressure monitoring.
Purified and buffered ^99mTc-DTPA-hAM1-52 samples were injected in right saphenous vein (n=6). A series of 2 mL blood samples were collected 1 min after the initial AM injection for a 10-min period, then repeated every 5 min for the following 50-min period. […]
Plasma kinetics of ^99mTc-DTPA-hAM1-52 was fitted using a two-phase exponential decay equation with GraphPad Prism version 4.0 software. Time effects on each organ biodistribution were analyzed by two-way repeated measures ANOVA followed, when a significant interaction was found, by Bonferroni/Dunn t-test. […]

[2] = Biodistribution and pulmonary retention of 125I-rAM(1-50) in rats after intravenous or intra-arterial injection; assay type: in vivo, rat; conditions: drug given 5 min before tracer
Method: (§1) All experimental procedures were performed in accordance with the regulations and ethical guidelines from Canadian Council for the Care of Laboratory Animals, and received approval by the Animal Ethics and Research Committee of the Montreal Heart Institute. Male Sprague-Dawley rats (Charles River), weighing between 400-450 g, were anaesthetized by an initial intramuscular dose of xylazine (10 mg/kg of body weight) and ketamine (50 mg/kg of body weight), followed by an intra-peritoneal injection of heparin (2000 units; Sigma). Catheters were inserted into the right carotid artery and jugular vein. Heart rate and systemic blood pressure were monitored continuously. […] Venous and arterial blood samples (3 ml) were collected and centrifuged (1875 g, 15 min, 4° C.) and the plasma saved for subsequent measurement of irAM (immunoreactive AM). A similar amount of saline was infused into the animals to prevent hypovolaemia.
The animals were then killed and the lungs, liver, kidneys (en bloc with the adrenal glands) and heart were removed and gravity drained. […] Results are expressed as a percentage of total radioactivity injected.
The drugs were given by either intraarterial (n=10 in each group) or intravenous (n=10 in each group) injection 5 min before the ^125I-rAM(1-50) bolus. Plasma samples and tissues were treated as described above.
(§2) Multiple group comparisons were performed by factorial ANOVA, followed, when a significant interaction was found, by the Bonferroni/Dunn t test. Plasma kinetics of 125I-rAM(1-50) was fitted using a two-phase exponential decay equation with GraphPad Prism (version 4.0) software. […] Comparison between venous and arterial rAM(1-50) levels in plasma was performed with a two-tailed paired Student's t test. In the canine experiments, the effect of drugs on AM extraction was analyzed by two-tailed paired Student's t tests. A P value of <0.05 was considered significant. All results are reported as means ±S.E.M.

[3] = Plasma kinetics of 125I-rAM(1-50) after single intravenous injection in rats; assay type: in vivo, rat; conditions: drug given 5 min before the 125I-rAM(1-50) bolus
Method: as §1
The animals were then killed and the lungs, liver, kidneys (en bloc with the adrenal glands) and heart were removed and gravity drained. […] Results are expressed as a percentage of total radioactivity injected. […]
Multiple group comparisons were performed by factorial ANOVA, followed, when a significant interaction was found, by the Bonferroni/Dunn t test. […] In the canine experiments, the effect of drugs on AM extraction was analyzed by two-tailed paired Student's t tests. […]

[4] = In vivo single-pass pulmonary clearance of 125I-rAM(1-50) in dogs, single bolus indicator-dilution technique; design: species or system dog; conditions: for mean single-pass pulmonary extraction of 125I-rAM(1-50) after administration of the drug: dogs, drug as intravenous bolus of 100 nmol 5 min before second experiment, mean ±S.E.M.
Method: Dogs were anaesthetized and prepared as described in detail in reference, which is hereby incorporated by reference. A catheter was inserted into the carotid artery and positioned just above the aortic valve. This catheter was connected to a peristaltic pump for automated blood withdrawal. Another catheter was placed into the jugular vein and positioned in the right ventricular outflow tract to allow bolus injection of the study tracers. A bolus was prepared by adding 3.3 μCi of 125I-rAM(1-50) (2.9 pmol) to 3 ml of Evans-Blue-dye labelled albumin and 0.9% saline to give a final volume of 6 ml. The mixture was separated into three equal parts for the two successive experiments in each animal and to realize dilution-curve standards. A baseline single-bolus indicator-dilution experiment was performed.
The collected samples were processed and indicator-dilution curves constructed and analyzed as described in previously cited reference 13. Cardiac output and mean tracer AM extraction during the pulmonary transit time were computed from the curves. Mean tracer extraction corresponded to the difference between the areas of the outflow curve of the vascular reference (albumin) and that of the extracted tracer (AM). Recirculation of the tracers apparent in the terminal portion of the curves was removed by linear extrapolation of the semi-logarithmic down slopes.
as §2

Row | Compound | ratio of rate constant for exchange between the central and peripheral compartments (k1-2/k2-1) [1] | effect of prior administration on 125I-rAM(1-50) activity retained in kidneys [2] | effect of prior administration on biodistribution of 125I-rAM(1-50) [2] | effect of prior administration on pulmonary first-pass retention of 125I-rAM(1-50) (intra-arterial compared with intravenous) [2] | effect of administration prior to radiolabelled rAM(1-50) on its plasma kinetics [3] | mean single-pass pulmonary extraction of 125I-rAM(1-50) after administration of the drug [4] | effect of prior administration on 125I-rAM(1-50) lung activity [2] | effect of prior administration on amount of 125I-rAM(1-50) retained by the liver, kidneys and heart [2] | mean extraction of 125I-rAM(1-50) after injection of the drug, typical experiment ([4]; same dog, second experiment (FIG. 4B))
1 | CC[C@H](C)[C@H](NC(=O)[C@H](CCC(N)=O)NC(=O)[C@H](Cc1c[nH]cn1)NC(=O)[C@H](C)NC(=O)[C@H](CC(C)C)NC(=O)[C@H](CCCCN)NC(=O)[C@H](CCC(N)=O)NC(=O)[C@@H](NC(=O)[C@@H](NC(=O)[C@@H]1CSSC[C@H](NC(=O)CNC(=O)[C@H](Cc2ccccc2)NC(=O)[C@H](CO)NC(=O)[C@H](CCCNC(=N)N)NC(=O)[C@H](CC(C)C)NC(=O)CNC(=O)[C@H](CCC(N)=O)NC(=O)[C@H](Cc2ccccc2)NC(=O)[C@H](CC(N)=O)NC(=O)[C@H](CC(N)=O)NC(=O)[C@H](CCSC)NC(=O)[C@H](CO)NC(=O)[C@H](CCC(N)=O)NC(=O)[C@H](CCCNC(=N)N)NC(=O)[C@H](Cc2ccc(O)cc2)NC(=O)CN(CCN(CCN(CC(=O)O)CC(=O)O)CC(=O)O)CC(=O)O)C(=O)N[C@@H](CCCNC(=N)N)C(=O)N[C@@H](Cc2ccccc2)C(=O)NCC(=O)N[C@@H]([C@@H](C)O)C(=O)N1)[C@@H](C)O)C(C)C)C(=O)N[C@@H](Cc1ccc(O)cc1)C(=O)N[C@@H](CCC(N)=O)C(=O)N[C@@H](Cc1ccccc1)C(=O)N[C@H](C(=O)N[C@@H](CC(=O)O)C(=O)N[C@@H](CCCCN)C(=O)N[C@@H](CC(=O)O)C(=O)N[C@@H](CCCCN)C(=O)N[C@@H](CC(=O)O)C(=O)N[C@@H](CC(N)=O)C(=O)N[C@H](C(=O)N[C@@H](C)C(=O)N1CCC[C@H]1C(=O)N[C@@H](CCCNC(=N)N)C(=O)N[C@@H](CO)C(=O)N[C@@H](CCCCN)C(=O)N[C@H](C(=O)N[C@@H](CO)C(=O)N1CCC[C@H]1C(=O)N[C@@H](CCC(N)=O)C(=O)NCC(=O)N[C@@H](Cc1ccc(O)cc1)C(N)=O)[C@@H](C)CC)C(C)C)[C@@H](C)O [99mTc-DTPA-hAM1-52, metal not drawn] | 24.09 |  |  |  |  |  |  |  | 
2 | hAM(22-52): C-terminal AM fragment that blocks the specific AM receptor (Bachem) |  | elevated the retained activity | did not significantly modify this distribution | not affected | did not modify plasma kinetics | 31.4±3.3% |  |  | 
3 | rAM(1-50): unlabelled rat adrenomedullin, amino acids 1-50 (American Peptide) (YRQSMNQGSRSTGCRFGTCTMQKLAHQIYQFTDKDKDGMAPRNKISPQGY; ends and bridges not checked; cysteine pairing not given here) |  |  |  | did not decrease further the already lowered pulmonary retention after intra-arterial compared with intravenous injections | did not modify plasma kinetics | 21.9±2.4% | important reduction in lung activity | significantly increased | 12%
